# From ChEMBL document CHEMBL5518236, “Discovery of Clinical Candidate AZD5462, a Selective Oral Allosteric RXFP1 Agonist for Treatment of Heart Failure” (J Med Chem, 2024)
# Experiments:
# [1] = Metabolic stability in human hepatocytes assessed as intrinsic clearance measured per 10^6 viable cells/ml at 1 uM measured upto 120 mins by LC-MS/MS analysis; format: ADME, cell-based, Hepatocyte; conditions: read-out: CLH
# [2] = Metabolic stability in human hepatocytes assessed as unbound intrinsic clearance measured per 10^6 viable cells/ml at 1 uM measured upto 120 mins by LC-MS/MS analysis; format: ADME, cell-based, Hepatocyte; conditions: 2 h
# [3] = target: T1, Relaxin receptor 1 (Homo sapiens, UniProt Q9HBX9)
# T1 sequence (Q9HBX9 whole entry): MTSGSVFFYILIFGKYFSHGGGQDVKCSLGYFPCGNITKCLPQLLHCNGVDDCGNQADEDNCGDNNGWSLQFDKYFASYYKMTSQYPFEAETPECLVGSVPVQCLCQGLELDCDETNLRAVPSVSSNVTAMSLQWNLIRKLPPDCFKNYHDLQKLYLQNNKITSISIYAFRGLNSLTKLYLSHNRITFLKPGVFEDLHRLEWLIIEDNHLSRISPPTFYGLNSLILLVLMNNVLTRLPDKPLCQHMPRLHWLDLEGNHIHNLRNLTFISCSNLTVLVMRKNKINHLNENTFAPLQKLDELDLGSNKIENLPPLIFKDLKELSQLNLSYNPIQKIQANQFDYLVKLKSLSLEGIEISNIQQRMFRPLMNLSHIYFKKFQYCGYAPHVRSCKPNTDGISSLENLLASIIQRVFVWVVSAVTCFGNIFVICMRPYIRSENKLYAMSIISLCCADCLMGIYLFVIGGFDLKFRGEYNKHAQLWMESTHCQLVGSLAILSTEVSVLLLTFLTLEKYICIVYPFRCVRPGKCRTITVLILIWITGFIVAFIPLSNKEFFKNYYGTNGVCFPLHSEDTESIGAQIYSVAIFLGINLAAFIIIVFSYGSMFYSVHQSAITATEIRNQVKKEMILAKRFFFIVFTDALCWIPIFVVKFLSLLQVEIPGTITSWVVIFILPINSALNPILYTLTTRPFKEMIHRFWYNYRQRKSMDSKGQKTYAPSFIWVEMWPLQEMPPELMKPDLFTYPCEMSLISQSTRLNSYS
# Description: Agonist activity at human RXFP1 expressed in CHO cells assessed as increase in cAMP level measured after 2 hrs by HTRF cAMP assay
# [4] = Octanol/water partition coefficient, logD of the compound at pH 7.4 by shake flask method; format: physicochemical
# [5] = Metabolic stability in human liver microsomes assessed as intrinsic clearance at 1 uM measured upto 30 mins by LC-MS/MS analysis; format: ADME, Microsome; conditions: read-out: CLH
# [6] = Metabolic stability in human liver microsomes assessed as unbound intrinsic clearance at 1 uM measured upto 30 mins by LC-MS/MS analysis; format: ADME, Microsome; conditions: 0.5 h
EC50 [3],logD [4],microsomal CLint at 1 µM [5],CL free [6],SMILES,hepatocyte CLint at 1 µM [1],CL free [2]
2 µM,2.83,161 µL/min/mg,23 µL/min/mg,Cc1cc(F)c(O[C@H]2CC[C@@](C)(C(=O)O)CC2)cc1C(=O)N[C@@H]1[C@H]2CC[C@H](C2)[C@@H]1C(=O)NCC1(C)CCC1,15 µL/min/1e6 cells,22 µL/min
–,3.6,20 µL/min/mg,100 µL/min/mg,COc1cc(Cl)c(O[C@H]2CC[C@@](C)(C(=O)O)CC2)cc1C(=O)N[C@@H]1[C@@H]2CC[C@@H](C2)[C@@H]1C(=O)NCC1(C)CCC1,49 µL/min/1e6 cells,153 µL/min
–,2,7.6 µL/min/mg,10 µL/min/mg,COc1cc(F)c(O[C@H]2C[C@@](C)(C(=O)O)C2)cc1C(=O)N[C@@H]1[C@H]2CC[C@H](C2)[C@@H]1C(=O)NCC1(C)CCC1,4.3 µL/min/1e6 cells,5.4 µL/min
–,2.9,25 µL/min/mg,30 µL/min/mg,CC1(CNC(=O)[C@H]2[C@@H]3CC[C@@H](C3)[C@H]2NC(=O)c2cc(O[C@H]3CC[C@@](C)(C(=O)O)CC3)cc3c2OCC3)CCC1,3.3 µL/min/1e6 cells,5.1 µL/min
1.58 µM,2.5,29 µL/min/mg,35 µL/min/mg,CC1(CNC(=O)[C@H]2[C@@H]3CC[C@@H](C3)[C@H]2NC(=O)c2cc(O[C@H]3CC[C@@](C)(C(=O)O)CC3)ccn2)CCC1,2.3 µL/min/1e6 cells,3.3 µL/min
–,3.3,12.6 µL/min/mg,17 µL/min/mg,CC1(CNC(=O)[C@H]2[C@@H]3CC[C@@H](C3)[C@H]2NC(=O)c2cc(O[C@H]3CC[C@@](C)(C(=O)O)CC3)c(F)cc2O)CCC1,58 µL/min/1e6 cells,105 µL/min
–,3.5,38 µL/min/mg,54 µL/min/mg,COc1cc(C)c(O[C@H]2CC[C@@](C)(C(=O)O)CC2)cc1C(=O)N[C@@H]1[C@H]2CC[C@H](C2)[C@@H]1C(=O)NCC1(C)CCC1,3.1 µL/min/1e6 cells,4.9 µL/min
0.316 µM,3,6.6 µL/min/mg,8.8 µL/min/mg,CC1(CNC(=O)[C@H]2[C@@H]3CC[C@@H](C3)[C@H]2NC(=O)c2ccc(F)c(O[C@H]3CC[C@@](C)(C(=O)O)CC3)c2)CCC1,8.4 µL/min/1e6 cells,16 µL/min
–,2.85,20 µL/min/mg,30 µL/min/mg,COc1cc(C#N)c(O[C@H]2CC[C@@](C)(C(=O)O)CC2)cc1C(=O)N[C@@H]1[C@H]2CC[C@H](C2)[C@@H]1C(=O)NCC1(C)CCC1,5.5 µL/min/1e6 cells,10 µL/min
0.0158 µM,3.3,14 µL/min/mg,27 µL/min/mg,CC1(CNC(=O)[C@H]2C3CCC(C3)[C@H]2NC(=O)c2cc(O[C@H]3CC[C@@](C)(C(=O)O)CC3)c(C#N)cc2F)CCC1 (stereo not given in full),7.9 µL/min/1e6 cells,16 µL/min
0.1 µM,2.4,17 µL/min/mg,20 µL/min/mg,CC1(CNC(=O)[C@H]2[C@@H]3CC[C@@H](C3)[C@H]2NC(=O)c2cc(O[C@H]3CC[C@@](C)(C(=O)O)CC3)c(C#N)cn2)CCC1,3.1 µL/min/1e6 cells,4.2 µL/min
–,3.7,27 µL/min/mg,62 µL/min/mg,COc1cc(C2CC2)c(O[C@H]2CC[C@@](C)(C(=O)O)CC2)cc1C(=O)N[C@@H]1[C@H]2CC[C@H](C2)[C@@H]1C(=O)NCC1(C)CCC1,5.3 µL/min/1e6 cells,13 µL/min
–,5.4,> 300 µL/min/mg,2.8 10^3uL/min/mg,COc1cc(F)c(O[C@H]2CC[C@@](C)(c3n[nH]c(=O)o3)CC2)cc1C(=O)N[C@@H]1[C@H]2CC[C@H](C2)[C@@H]1C(=O)NCC1(C)CCC1,73 µL/min/1e6 cells,562 µL/min
–,3.5,36 µL/min/mg,64 µL/min/mg,COc1cc(Cl)c(O[C@H]2CC[C@@](C)(C(=O)O)CC2)cc1C(=O)N[C@@H]1[C@H]2CC[C@H](C2)[C@@H]1C(=O)NCC1(C)CCC1,4.8 µL/min/1e6 cells,14 µL/min
–,2.8,15 µL/min/mg,29 µL/min/mg,COc1cc(F)c(O[C@H]2CC[C@@](C)(c3nnn[nH]3)CC2)cc1C(=O)N[C@@H]1[C@H]2CC[C@H](C2)[C@@H]1C(=O)NCC1(C)CCC1,5.8 µL/min/1e6 cells,13 µL/min
–,1.9,11 µL/min/mg,14 µL/min/mg,COc1cc(S(C)(=O)=O)c(O[C@H]2CC[C@@](C)(C(=O)O)CC2)cc1C(=O)N[C@@H]1[C@H]2CC[C@H](C2)[C@@H]1C(=O)NCC1(C)CCC1,1.2 µL/min/1e6 cells,1.7 µL/min
–,3.8,23 µL/min/mg,39 µL/min/mg,COc1cc(C(F)F)c(O[C@H]2CC[C@@](C)(C(=O)O)CC2)cc1C(=O)N[C@@H]1[C@H]2CC[C@H](C2)[C@@H]1C(=O)NCC1(C)CCC1,5.1 µL/min/1e6 cells,11 µL/min
–,3.4,33 µL/min/mg,50 µL/min/mg,COc1cc(F)c(O[C@H]2CC[C@@](C)(C(=O)O)CC2)cc1C(=O)N[C@@H]1[C@H]2CC[C@H](C2)[C@@H]1C(=O)N[C@H](C)C(C)(C)C,5.9 µL/min/1e6 cells,11 µL/min
–,2.9,37 µL/min/mg,49 µL/min/mg,CC1(CNC(=O)[C@H]2[C@@H]3CC[C@@H](C3)[C@H]2NC(=O)c2cc(O[C@H]3CC[C@@](C)(C(=O)O)CC3)c(F)cc2F)CCC1,6.7 µL/min/1e6 cells,10 µL/min
0.0794 µM,3.8,87 µL/min/mg,212 µL/min/mg,COc1cc(F)c(O[C@H]2CC[C@@](C)(c3noc(=O)[nH]3)CC2)cc1C(=O)N[C@@H]1[C@H]2CC[C@H](C2)[C@@H]1C(=O)NCC1(C)CCC1,12 µL/min/1e6 cells,–
–,2.6,5.7 µL/min/mg,7.6 µL/min/mg,COc1cc(F)c(O[C@H]2CC[C@@](C)(C(=O)O)CC2)cc1C(=O)N[C@@H]1[C@H]2CC[C@H](C2)[C@@H]1C(=O)NCC(C)C,< 1 µL/min/1e6 cells,< 1.4 µL/min
–,4,44 µL/min/mg,83 µL/min/mg,CCc1cc(OC)c(C(=O)N[C@@H]2[C@H]3CC[C@H](C3)[C@@H]2C(=O)NCC2(C)CCC2)cc1O[C@H]1CC[C@@](C)(C(=O)O)CC1,3.9 µL/min/1e6 cells,9.1 µL/min
–,2.9,7 µL/min/mg,10 µL/min/mg,COc1c(C)cc(O[C@H]2CC[C@@](C)(C(=O)O)CC2)cc1C(=O)N[C@@H]1[C@H]2CC[C@H](C2)[C@@H]1C(=O)NCC1(C)CCC1,5.6 µL/min/1e6 cells,8.9 µL/min
1.58 µM,–,44 µL/min/mg,70 µL/min/mg,CC1(CNC(=O)[C@H]2[C@@H]3CC[C@@H](C3)[C@H]2N2CCc3cc(F)c(O[C@H]4CC[C@@](C)(C(=O)O)CC4)cc3C2=O)CCC1,2.1 µL/min/1e6 cells,3 µL/min
–,3.3,44 µL/min/mg,73 µL/min/mg,COc1c(F)cc(O[C@H]2CC[C@@](C)(C(=O)O)CC2)cc1C(=O)N[C@@H]1[C@H]2CC[C@H](C2)[C@@H]1C(=O)NCC1(C)CCC1,5.3 µL/min/1e6 cells,9.5 µL/min
–,3.3,34 µL/min/mg,59 µL/min/mg,CC1(CNC(=O)[C@H]2[C@@H]3CC[C@@H](C3)[C@H]2NC(=O)c2cc(O[C@H]3CC[C@@](C)(C(=O)O)CC3)c(F)cc2OC(F)F)CCC1,26 µL/min/1e6 cells,52 µL/min
–,3.3,81 µL/min/mg,147 µL/min/mg,COc1c(Cl)cc(O[C@H]2CC[C@@](C)(C(=O)O)CC2)cc1C(=O)N[C@@H]1[C@H]2CC[C@H](C2)[C@@H]1C(=O)NCC1(C)CCC1,13 µL/min/1e6 cells,31 µL/min
